system: SLC16A11; assay: Compound treatment, SLC16A11 expression by ddPCR in SNU761 cells; format: cell-based, human; conditions: not given
Procedure: A small number of the compounds that made the strongest positive connections to the SLC16A11 gene expression signature were selected and tested. […] Methotrexate was also included, which had been annotated as a dihydrofolate reductase inhibitor. SNU761 cells (derived from a human hepatocellular carcinoma) and NCIH716 cells (derived from a human cecum adenocarcinoma), which both express SLC16A11, were treated with the compounds. The same compound concentrations and treatment times were used as in the LINCS dataset experiments. […] For normalization, a different housekeeper gene, HPRT1, was used and obtained similar results with the mTOR inhibitors (FIGS. 14A and 14B).
From the total list of compounds, 59 readily available compounds were selected from the 79 compounds with the largest connectivity scores to the query signature and 20 middle compounds with connectivity scores centered on 0 (FIG. 15A) and then treated SNU761 cells at the same doses and treatment times as were used in the LINCS dataset. It was expected that the top compounds would be enriched for compounds that increased SLC16A11 expression. […] The results were aligned with the expectations (FIG. 15B). Hierarchical clustering of the SLC16 expression profiles generated by the compound treatments are shown by the heat map in FIG. 15C.
SNU761 (human hepatocellular carcinoma) and NCIH716 (human cecum adenocarcinoma) were cultured in RPMI Medium 1640 supplemented with 10% Fetal Bovine Serum (FBS), 100 μg/ml Streptomycin and 100 U/ml Penicillin. Cells were grown in a humidified CO2 incubator, at 37° C.
For the unbiased approach taken to investigate the compounds that connected to the SLC16A11 gene expression signature, compounds were obtained from compound management at the Broad Institute.
SNU761 and NCIH716 cells were plated into 96 well plates at a density of 20,000 cells per well. Hepatocytes were plated into collagen coated 96 well plates (Corning, 354408) at a density of 50,000 cells per well. After 24 hours, cells were treated with compounds at a final concentration of 10 μM or vehicle control for the appropriate amount of time.
At the time of collection, cells in 96 well plates were lysed by directly adding 50 μL of RLT buffer (Qiagen). 75 μL of AMPure XP beads, diluted by a factor of 5 in polyethylene glycol, were then added to bind nucleic acids. One wash with polyethylene glycol was then performed. DNase treatment (Qiagen) was carried out according to the manufacturer's protocol in a final volume of 50 μL. 100 μL of polyethylene glycol was added after the DNase treatment to crowd nucleic acids back onto the beads. Two washes with 80% ethanol were performed and residual ethanol was removed. RNA was then eluted in water.
RNA was DNase treated and converted into cDNA using the High-Capacity RNA-to-cDNA kit (Thermo Fisher Scientific). The following FAM-labeled TaqMan Real-Time PCR assays (Thermo Fisher Scientific) were used to quantify gene expression: SLC16A11 (Hs00601062_g1), SLC16A13 (Hs00416832_m1), SLC16A1 (Hs01560299_m1). The VIC-labeled TaqMan Real-Time assays TBP (Hs00427620_m1) or HPRT1 (Hs02800695_m1) were used for normalization. Droplets were generated and analyzed using a QX200 Droplet Generator and Reader system (BioRad). Data was extracted using QuantaSoft (BioRad) and analyzed using Microsoft Excel.

For N#CC(=C(/N)Sc1ccccc1N)/C(C#N)=C(\N)Sc1ccccc1N [U0126], the “avg_fc (SLC16A11 expression, compound treated vs DMSO treated cells)” value was 1.885.

same assay, conditions: SNU761 cells; same doses and treatment times as in the LINCS dataset

First: Cc1cn(-c2cc(C(=O)Nc3ccc(C)c(NC(=O)c4ccno4)c3)cc(C(F)(F)F)c2)cn1 [ALW-II-38-3]
Second: COCC(=O)NC/C=C/c1ccc2ncnc(Nc3ccc(Oc4ccc(C)nc4)c(C)c3)c2c1 [CP-724714]
The “avg_fc (SLC16A11 expression, compound treated vs DMSO treated cells)” value of the first is lower: 0.9734 for the first, 1.37 for the second.

Compared with O=C1NC(=O)/C(=C/c2ccc3c(c2)OC(F)(F)O3)S1 [AS-604850], O=C1NC(=O)/C(=C\c2ccc3nccnc3c2)S1 [AS-605240] is lower in “avg_fc (SLC16A11 expression, compound treated vs DMSO treated cells)” value: 1.009 for the first, 0.7908 for the second.

First: O=C(NC[C@H](O)CO)c1ccncc1Nc1ccc(I)cc1F [AS-703026]
Second: O=C(NOC[C@H](O)CO)c1ccc(F)c(F)c1Nc1ccc(I)cc1F [PD-0325901]
The “avg_fc (SLC16A11 expression, compound treated vs DMSO treated cells)” value of the first is lower: 1.68 for the first, 2.181 for the second.

Going from Cc1cc([C@@H](C)Nc2ccccc2C(=O)O)c2nc(N3CCOCC3)cc(=O)n2c1 [AZD-6482] to O=c1cc(N2CCOCC2)oc2c1ccc1ccccc12 [NU-7026], the “avg_fc (SLC16A11 expression, compound treated vs DMSO treated cells)” value falls from 2.176 to 1.12.

First: NC(=O)Nc1cc(-c2cccc(F)c2)sc1C(=O)N[C@H]1CCCNC1 [AZD-7762, 3-[(aminocarbonyl)amino]-5-(3-fluorophenyl)-N-(3S)-3-piperidinyl-2-thiophenecarboxamide, reference compound]
Second: O=C(NOCC1CC1)c1ccc(F)c(F)c1Nc1ccc(I)cc1Cl [PD-184352]
The “avg_fc (SLC16A11 expression, compound treated vs DMSO treated cells)” value of the first is higher: 4.924 for the first, 1.445 for the second.

Compared with OC1CCC(Nc2ncc3nc(Nc4c(F)cc(F)cc4F)n([C@@H]4CCOC4)c3n2)CC1 (some centres unmarked) [CG-930], CNC(=O)Nc1ccc(-c2nc(N3CC4CCC(C3)O4)c3cnn(C4CCC5(CC4)OCCO5)c3n2)cc1 [WYE-125132] is higher in “avg_fc (SLC16A11 expression, compound treated vs DMSO treated cells)” value: 1.337 for the first, 3.336 for the second.

First: C[C@H](NC(=O)Cc1cc(F)cc(F)c1)C(=O)N[C@H](C(=O)OC(C)(C)C)c1ccccc1 [DAPT-GSI-IX]
Second: CCCC[C@@H](C=O)NC(=O)[C@H](CC(C)C)NC(=O)OCc1ccccc1 [calpeptin]
The “avg_fc (SLC16A11 expression, compound treated vs DMSO treated cells)” value of the first is higher: 1.286 for the first, 1.034 for the second.

Compared with Cc1nc2c(c(=O)[nH]1)CSCC2 [DR-2313], COc1cccc2cc(-c3nc([C@H]4CC[C@H](C(=O)O)CC4)n4ncnc(N)c34)[nH]c12 [OSI-027, trans-4-[4-amino-5-(7 methoxy-1H-indol-2-yl)imidazo[5,1-f][1,2,4]triazin-7-yl]-cyclohexanecarboxylic acid, reference compound] is higher in “avg_fc (SLC16A11 expression, compound treated vs DMSO treated cells)” value: 1.127 for the first, 3.384 for the second.

First: Cc1cccc(CCN2CCC(C(=O)c3ccc(NS(C)(=O)=O)cc3)CC2)n1 [E-4031]
Second: Cc1[nH]c(/C=C2\C(=O)Nc3ccc(S(=O)(=O)N(C)c4cccc(Cl)c4)cc32)c(C)c1C(=O)N1CCN(C)CC1 [SU-11274]
The “avg_fc (SLC16A11 expression, compound treated vs DMSO treated cells)” value of the first is lower: 0.9411 for the first, 1.059 for the second.

Compared with Nc1[nH]nc2nnc(-c3c(-c4ccccc4)nn4ccccc34)cc12 [FR-180204], NC1(c2ccc(-c3nc4ccn5c(=O)[nH]nc5c4cc3-c3ccccc3)cc2)CCC1 [MK-2206] is lower in “avg_fc (SLC16A11 expression, compound treated vs DMSO treated cells)” value: 0.915 for the first, 0.6972 for the second.

Compared with CS(=O)(=O)N1CCN(Cc2cc3nc(-c4cccc5[nH]ncc45)nc(N4CCOCC4)c3s2)CC1 [GDC-0941], Oc1cccc(-c2nc(N3CCOCC3)c3oc4ncccc4c3n2)c1 [PI-103, 3-(6-morpholin-4-yl-8-oxa-3,5,10-triazatricyclo[7.4.0.0^2,7]trideca-1 (9),2(7),3,5,10,12-hexaen-4-yl)phenol, reference compound] is higher in “avg_fc (SLC16A11 expression, compound treated vs DMSO treated cells)” value: 2.079 for the first, 2.453 for the second.

Compared with COc1ccc(CNC(=O)/C=C/c2ccc3[nH]cc(CCN(C)C)c3c2)cc1 [GR-46611], c1ccc2c(CCNc3ccc(Nc4ccncc4)cc3)c[nH]c2c1 [JNJ-26854165] is lower in “avg_fc (SLC16A11 expression, compound treated vs DMSO treated cells)” value: 0.6609 for the first, 0.5328 for the second.

Going from O=C1NC(=O)/C(=C/c2ccc3nccc(-c4ccncc4)c3c2)S1 [GSK-1059615] to Nc1ccc(-c2cccc3c(=O)cc(N4CCOCC4)oc23)cc1 [PI-828], the “avg_fc (SLC16A11 expression, compound treated vs DMSO treated cells)” value rises from 1.25 to 1.336.

Going from O=C(NC(COc1ccc2[nH]c(=O)[nH]c2c1)c1ccccc1)c1cccn(Cc2ccc(F)c(F)c2)c1=O (centres unmarked) [KIN001-244] to Cn1c(=O)n(-c2ccc(C(C)(C)C#N)cc2)c2c3cc(-c4cnc5ccccc5c4)ccc3ncc21 [NVP-BEZ235, 2-methyl-2-[4-(3-methyl-2-oxo-8-quinolin-3-ylimidazo[4,5-c]quinolin-1-yl)phenyl]propanenitrile, reference compound], the “avg_fc (SLC16A11 expression, compound treated vs DMSO treated cells)” value rises from 1.084 to 2.779.

Going from N#CC(=C(N)Sc1ccc(N)cc1)c1ccccc1C(F)(F)F [MEK1-2-inhibitor] to NS(=O)(=O)c1cc2c(cc1C(F)(F)F)NC(Cc1ccccc1)NS2(=O)=O (centres unmarked) [bendroflumethiazide], the “avg_fc (SLC16A11 expression, compound treated vs DMSO treated cells)” value falls from 1.414 to 0.7917.

Compared with Clc1cncc(N2CCNCC2)n1 [MK-212], CN1CCN(C2=Nc3cc(Cl)ccc3Nc3ccccc32)CC1 [clozapine] is higher in “avg_fc (SLC16A11 expression, compound treated vs DMSO treated cells)” value: 0.8022 for the first, 0.9466 for the second.

Compared with COc1cccc(-c2cc(=O)c3ccccc3o2)c1N [PD-98059], COc1ccc2c(c1OC)N=C(NC(=O)c1cccnc1)N1CCN=C21 [PIK-90] is higher in “avg_fc (SLC16A11 expression, compound treated vs DMSO treated cells)” value: 0.7929 for the first, 1.487 for the second.

Compared with Cn1cc(C(=O)C(=O)NC2CN3CCC2CC3)c2ccccc21 (centres unmarked) [RS-56812], COC(=O)Nc1ccc(-c2nc(N3CCOCC3)c3cnn(C4CCN(C(=O)OC)CC4)c3n2)cc1 [WYE-354, methyl 4-[6-[4-(methoxycarbonylamino)phenyl]-4-morpholin-4-ylpyrazolo[3,4-d]pyrimidin-1-yl]piperidine-1-carboxylate, reference compound] is higher in “avg_fc (SLC16A11 expression, compound treated vs DMSO treated cells)” value: 0.9914 for the first, 3.517 for the second.

Going from COC(=O)c1c(-c2cc(OC)c(OC)c(OC)c2)c2ccnc(OCc3ncccn3)c2c(=O)n1Cc1ccnc(C)c1 [T-0156] to Nc1nc(N)c2nc(-c3cccc(O)c3)c(-c3cccc(O)c3)nc2n1 [TG100-115], the “avg_fc (SLC16A11 expression, compound treated vs DMSO treated cells)” value rises from 0.8378 to 1.086.

Compared with NC(=O)c1ccc(N(C(N)=O)c2c(F)cccc2F)nc1-c1ccc(F)cc1F [VX-702], CC(C)OC(=O)c1cc2c(OCC(O)CNC(C)(C)C)cccc2[nH]1 (centres unmarked) [carpindolol] is lower in “avg_fc (SLC16A11 expression, compound treated vs DMSO treated cells)” value: 0.8683 for the first, 0.8548 for the second.

Going from COCCCOc1cc(C[C@@H](C[C@H](N)[C@@H](O)C[C@H](C(=O)NCC(C)(C)C(N)=O)C(C)C)C(C)C)ccc1OC [aliskiren] to CC1(C)C[C@@H]1C(=O)N/C(=C\CCCCSC[C@H](N)C(=O)O)C(=O)O [cilastatin], the “avg_fc (SLC16A11 expression, compound treated vs DMSO treated cells)” value rises from 0.8853 to 0.9371.

Going from CC(C)COCC(CN(Cc1ccccc1)c1ccccc1)N1CCCC1 (centres unmarked) [bepridil] to C[C@@H]1C[C@@H]([C@H](O)CC2CC(=O)NC(=O)C2)C(=O)[C@@H](C)C1 [cycloheximide], the “avg_fc (SLC16A11 expression, compound treated vs DMSO treated cells)” value rises from 0.8545 to 1.243.

For Nc1nc(Cl)nc2c1ncn2[C@H]1C[C@H](O)[C@@H](CO)O1 [cladribine], the “avg_fc (SLC16A11 expression, compound treated vs DMSO treated cells)” value was 0.5994.

same assay, conditions: SNU761 cells; unbiased test of 59 top and 20 middle LINCS compounds; LINCS doses and times

In the case of NC(=O)Nc1cc(-c2cccc(F)c2)sc1C(=O)N[C@H]1CCCNC1 [AZD-7762, 3-[(aminocarbonyl)amino]-5-(3-fluorophenyl)-N-(3S)-3-piperidinyl-2-thiophenecarboxamide, reference compound], the “increase in SLC16A11 expression, compound treated compared to DMSO treated cells” value is reported as “about 5 fold”.
